Tested on: HCV 1b_Huh-Luc/Neo-ET cell line persistently expressing a bicistronic genotype 1b replicon in Huh 7 cells
Test: HCV replicon assay (luciferase readout, 72 h)
Type: cell-based, HCV genotype 1b
Details: Hepatitis C virus, Huh-7, 72 h, read-out: Inhibition of HCV genotype 1b
In short: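 EC50 values come from a four-parameter fit of luciferase signal as % of untreated control, repeated across several determinations. The signal is from the HCV 1b_Huh-Luc/Neo-ET replicon line, dosed in triplicate one day post-plating and incubated 72 h before Bright-Glo readout.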

Structure (SMILES) | EC50
CCN(CC)[C@@H](C(=O)N1CCC[C@H]1c1ncc(-c2ccc(C#Cc3ccc(-c4cnc([C@@H]5CCCN5C(=O)[C@@H](NC(=O)OC)C(C)C)[nH]4)cc3)cc2)[nH]1)c1ccccc1 [Compound 985] | < 1 nM
COC(=O)N[C@H](C(=O)N1CCC[C@H]1c1ncc(-c2ccc(C#Cc3ccc(-c4cnc([C@H](C)NC(=O)[C@H](C(C)C)N(C)C)[nH]4)cc3)cc2)[nH]1)C(C)C [Compound 981] | 10 to 999 nM
COC(=O)N[C@@H](C(=O)N1CCC[C@H]1c1ncc(-c2ccc(C#Cc3ccc(-c4cnc([C@@H]5CCCN5C(=O)[C@H](NC(=O)[C@H]5CCCO5)c5ccccc5)[nH]4)cc3)cc2)[nH]1)c1ccccc1 [Compound 201] | < 1 nM
COC(=O)N[C@@H](C)C(=O)N1CCC[C@H]1c1ncc(-c2ccc(C#Cc3ccc(-c4cnc([C@@H]5CCCN5C(=O)[C@H](C)NC(=O)OC)[nH]4)cc3)cc2)[nH]1 [Compound 962] | < 1 nM
COC(=O)N[C@@H](C(=O)N1CCC[C@H]1c1ncc(-c2ccc(C#Cc3ccc(C(=O)NC[C@@H]4CCCN4C(=O)[C@H](NC(=O)N4CCN(C)CC4)c4ccccc4)cc3)cc2)[nH]1)c1ccccc1 [Compound 236] | < 1 nM
COC(=O)N[C@@H](C(=O)N1CCC[C@H]1c1ncc(-c2ccc(C#Cc3ccc(-c4cnc([C@@H]5CCCN5C(=O)[C@H](NC(=O)C5CCCN5C)c5ccccc5)[nH]4)cc3)cc2)[nH]1)c1ccccc1 (stereo partly drawn) [Compound 203] | < 1 nM
COC(=O)N[C@H](C(=O)N1CCC[C@H]1c1ncc(-c2ccc(C#Cc3ccc4nc([C@@H]5CCCN5C(=O)[C@@H](NC(=O)OC)C(C)C)[nH]c4c3)cc2)[nH]1)C(C)C [Compound 802] | < 1 nM
COC(=O)N[C@@H]1CCC[C@H]1C(=O)N1CCC[C@H]1c1ncc(-c2ccc(C#Cc3ccc4nc([C@@H]5CCCN5C(=O)[C@@H]5CCC[C@H]5NC(=O)OC)[nH]c4c3)cc2)[nH]1 [Compound 1058] | 10 to 999 nM
CC(C)(C)OC(=O)N[C@@H](C(=O)N1CCC[C@H]1C(=O)NCCc1ccc(C#Cc2cnc([C@@H]3CCCN3C(=O)[C@H](NC(=O)OC(C)(C)C)c3ccccc3)[nH]2)cc1)c1ccccc1 [Compound 124] | < 1 nM
O=C(NCC(=O)N1CCC[C@H]1c1ncc(C#Cc2ccc(-c3cnc([C@@H]4CCCN4C(=O)CNC(=O)C4CC4)[nH]3)cc2)[nH]1)C1CC1 [Compound 113] | 10 to 999 nM
C[C@H](NC(=O)[C@@H]1CCCN1C(=O)[C@H](NC(=O)OC(C)(C)C)c1ccccc1)c1ccc(C#Cc2cnc([C@@H]3CCCN3C(=O)[C@H](NC(=O)OC(C)(C)C)c3ccccc3)[nH]2)cc1 [Compound 130] | 10 to 999 nM
COC(=O)N[C@H](C(=O)N1CCC[C@H]1c1nc2c([nH]1)-c1ccc(C#Cc3ccc4nc([C@@H]5CCCN5C(=O)[C@H](NC(=O)OC)c5ccccc5)[nH]c4c3)cc1CC2)C(C)C [Compound 1103] | < 1 nM
C[C@@H](NC(=O)OC(C)(C)C)C(=O)N1CCC[C@H]1c1ncc(C#Cc2ccc(-c3cnc([C@@H]4CCCN4C(=O)[C@@H](C)NC(=O)OC(C)(C)C)[nH]3)cc2)[nH]1 [Compound 104] | 1 to 9.9 nM
COC(=O)N[C@@H](C(=O)N1CCC[C@H]1c1ncc(-c2ccc(C#Cc3ccc(-c4cnc([C@@H]5CCCN5C(=O)Nc5ccccc5)[nH]4)cc3)cc2)[nH]1)c1ccccc1 [Compound 196] | 1 to 9.9 nM
COC(=O)N[C@@H](C(=O)N1CCC[C@H]1c1ncc(-c2ccc(C#Cc3ccc(-c4cnc([C@@H]5CCCN5C(=O)[C@H](NC(=O)OC)[C@H](C)OC)[nH]4)cc3)cc2)[nH]1)[C@H](C)OC [Compound 977] | 10 to 999 nM
C[C@@H](NC(=O)OC(C)(C)C)C(=O)N1CCC[C@H]1c1ncc(-c2ccc(C#Cc3ccc(-c4cnc([C@@H]5CCCN5C(=O)[C@@H](C)NC(=O)OC(C)(C)C)[nH]4)cc3)cc2)[nH]1 [Compound 151] | 10 to 999 nM
COC(=O)N[C@H](C(=O)N1CCC[C@H]1c1nc2ccc(C#Cc3ccc(-c4cnc([C@@H]5CCCN5C(=O)[C@H](NC(=O)OC)C(C)C)[nH]4)cc3)cc2[nH]1)C(C)C [Compound 1053] | < 1 nM
COC(=O)N[C@@H](C(=O)N1CCC[C@H]1c1ncc(-c2ccc(C#Cc3ccc(-c4cnc([C@@H]5CCCN5C(=O)[C@H](NC(=O)[C@H]5CCCN5)c5ccccc5)[nH]4)cc3)cc2)[nH]1)c1ccccc1 [Compound 207] | < 1 nM
CC(C)(C)OC(=O)N[C@@H](C(=O)N1CCC[C@H]1C(=O)NCc1ccc(C#Cc2ccc(-c3cnc([C@@H]4CCCN4C(=O)[C@H](NC(=O)OC(C)(C)C)c4ccccc4)[nH]3)cc2)cc1)c1ccccc1 [Compound 189] | < 1 nM
COC(=O)N[C@H](C(=O)N1CSC[C@H]1c1ncc(-c2ccc(C#Cc3ccc4nc([C@@H]5CCCN5C(=O)[C@@H](NC(=O)OC)C(C)C)[nH]c4c3)cc2)[nH]1)C(C)C [Compound 1026] | < 1 nM

Structure (SMILES) | EC50
C[C@H](NC(=O)[C@@H]1CCCN1C(=O)[C@H](NC(=O)OC(C)(C)C)c1ccccc1)c1ccc(C#Cc2ccc(-c3cnc([C@@H]4CCCN4C(=O)[C@H](NC(=O)OC(C)(C)C)c4ccccc4)[nH]3)cc2)cc1 [Compound 169] | 1 to 9.9 nM
COC(=O)N[C@H](C(=O)N1CCC[C@H]1c1ncc(-c2ccc(C#Cc3ccc4c(c3)CCc3nc([C@@H]5CCCN5C(=O)[C@@H](NC(=O)OC)C(C)C)[nH]c3-4)cc2)[nH]1)C(C)C [Compound 1094] | < 1 nM
COC(=O)N[C@H](C(=O)N1CCC[C@H]1c1nc2ccc3cc(C#Cc4ccc(-c5cnc([C@@H]6CCCN6C(=O)[C@@H](NC(=O)OC)C6CCOCC6)[nH]5)cc4)ccc3c2[nH]1)C(C)C [Compound 1092] | < 1 nM
CC(C)[C@H](NC(=O)N1CCN(C)CC1)C(=O)N1CCC[C@H]1c1ncc(-c2ccc(C#Cc3ccc(-c4cnc([C@@H]5CCCN5C(=O)[C@@H](NC(=O)N5CCN(C)CC5)C(C)C)[nH]4)cc3)cc2)[nH]1 [Compound 287] | > 1000 nM
COC(=O)N[C@@H](C(=O)N1CCC[C@H]1c1ncc(-c2ccc(C#Cc3ccc(-c4cnc([C@@H]5CCCN5C(=O)OCc5ccccc5)[nH]4)cc3)cc2)[nH]1)c1ccccc1 [Compound 200] | < 1 nM
O=C(N[C@@H](C(=O)N1CCC[C@H]1c1ncc(-c2ccc(C#Cc3ccc(-c4cnc([C@@H]5CCCN5C(=O)[C@@H](c5ccccc5)N5CCCCC5)[nH]4)cc3)cc2)[nH]1)c1ccccc1)N1CCOCC1 [Compound 209] | < 1 nM
CN(C)[C@@H](C(=O)N1CCC[C@H]1c1ncc(-c2ccc(C#Cc3ccc(-c4cnc([C@@H]5CCCN5C(=O)[C@H](NC(=O)C5CC5)c5ccccc5)[nH]4)cc3)cc2)[nH]1)c1ccccc1 [Compound 215] | < 1 nM
COC(=O)N[C@H](C(=O)N1CCC[C@H]1c1ncc(-c2ccc(C#Cc3ccc(-c4cnc([C@@H]5CCCN5C(=O)[C@H](NC(=O)N5CCC(O)CC5)c5ccccc5)[nH]4)cc3)cc2)[nH]1)C(C)C [Compound 991] | 1 to 9.9 nM
CN1CCN(C(=O)N[C@@H](C(=O)N2CCC[C@H]2c2ncc(C#Cc3ccc(-c4cnc([C@@H]5CCCN5C(=O)[C@H](NC(=O)N5CCN(C)CC5)c5ccccc5)[nH]4)cc3)[nH]2)c2ccccc2)CC1 [Compound 118] | 10 to 999 nM
O=C(N[C@@H](C(=O)N1CCC[C@H]1c1nc(-c2ccc3cc(C#Cc4cnc([C@@H]5CCCN5C(=O)[C@H](NC(=O)N5CC[C@H](O)C5)c5ccccc5)[nH]4)ccc3c2)c[nH]1)c1ccccc1)N1CC[C@H](O)C1 [Compound 806] | 1 to 9.9 nM
O=C(N[C@@H](C(=O)N1CCC[C@H]1c1nc(-c2ccc3cc(C#Cc4cnc([C@@H]5CCCN5C(=O)[C@H](NC(=O)N5CCOCC5)c5ccccc5)[nH]4)ccc3c2)c[nH]1)c1ccccc1)N1CCOCC1 [Compound 808] | < 1 nM
COC(=O)N[C@@H](C(=O)N1CCC[C@H]1c1ncc(-c2ccc(C#Cc3ccc4nc([C@@H]5CCCN5C(=O)[C@H](NC(=O)OC)C(C)C)[nH]c4c3)cc2)[nH]1)C(C)C [Compound 861] | 10 to 999 nM
CC(C)[C@@H](NC(=O)C1CC1)C(=O)N1CCC[C@H]1C(=O)NCc1ccc(C#Cc2cnc([C@@H]3CCCN3C(=O)[C@H](NC(=O)C3CC3)C(C)C)[nH]2)cc1 [Compound 122] | 1 to 9.9 nM
COC(=O)N[C@H](C(=O)N1CCC[C@H]1c1ncc(-c2ccc(C#Cc3ccc(-c4cnc([C@@H]5CCCN5C(=O)[C@@H](c5ccccc5)N5CCOCC5)[nH]4)cc3)cc2)[nH]1)C(C)C [Compound 987] | < 1 nM
COC(=O)N[C@@H](C(=O)N1CCC[C@H]1c1ncc(-c2ccc(C#Cc3ccc(-c4cnc([C@@H]5CCCN5C(=O)[C@@H]5CCCN5C)[nH]4)cc3)cc2)[nH]1)c1ccccc1 [Compound 202] | < 1 nM
COC(=O)N[C@H](C(=O)N1CCC[C@H]1c1ncc(C#Cc2ccc(-c3ccc(-c4cnc([C@@H]5CCCN5C(=O)[C@@H](NC(=O)OC)C(C)C)[nH]4)cc3)cc2)[nH]1)C(C)C [Compound 756] | < 1 nM
COC(=O)N[C@@H](C(=O)N1CCC[C@H]1c1ncc(-c2ccc(C#Cc3ccc(-c4cnc([C@@H]5CCCN5C(=O)NCc5ccccc5)[nH]4)cc3)cc2)[nH]1)c1ccccc1 [Compound 197] | < 1 nM
COC(=O)N[C@H](C(=O)N1CCC[C@H]1c1ncc(-c2ccc(C#Cc3ccc4nc([C@@H]5CCCN5C(=O)[C@@H](NC(=O)OC)C5CC5)[nH]c4c3)cc2)[nH]1)C1CC1 [Compound 1029] | < 1 nM
COC(=O)N[C@@H](C(=O)N1CCC[C@H]1c1ncc(-c2ccc(C#Cc3ccc(-c4cnc([C@@H]5CCCN5C(=O)[C@H]5CCCO5)[nH]4)cc3)cc2)[nH]1)c1ccccc1 [Compound 177] | < 1 nM

Same assay, conditions: Hepatitis C virus, Huh-7, read-out: Inhibition of HCV genotype 1b

Structure (SMILES) | EC50
COC(=O)N[C@H](C(=O)N1CCC[C@H]1c1nc2ccc3cc(C#Cc4ccc5nc([C@@H]6CCCN6C(=O)[C@H](NC(=O)OC6CCOCC6)c6ccccc6)[nH]c5c4)ccc3c2[nH]1)C(C)C [Compound 1276] | < 1 nM
COC(=O)N[C@@H](C(=O)N1CCC[C@H]1c1ncc(-c2ccc(C#Cc3ccc(-c4cnc([C@@H]5CCCN5C(=O)[C@H](NC(=O)OC)c5ccccc5)[nH]4)cc3C(=O)OC)cc2)[nH]1)c1ccccc1 [Compound 1201] | < 1 nM
COC(=O)N[C@H](C(=O)N1CCC[C@H]1c1ncc(-c2ccc(C#Cc3ccc(-c4cnc([C@@H]5CCCN5C(=O)[C@@H](NC(=O)OC)C5CCOCC5)[nH]4)cc3)cc2)[nH]1)C1CCCC1 [Compound 1221] | < 1 nM

— patent US20130296311A1, “INHIBITORS OF HCV NS5A” (PRESIDIO PHARMACEUTICALS, INC., priority 2010, published 2013)
